Test results taken from paper PMC6017545, “Design, Synthesis, and Biological Evaluation of Novel 1,3,4-Thiadiazole Derivatives as Potential Antitumor Agents against Chronic Myelogenous Leukemia: Striking Effect of Nitrothiazole Moiety” (Molecules : A Journal of Synthetic Chemistry and Natural …, 2017).

Columns and labels:
[1] = tested on: K562 chronic myelogenous leukemia cell line; experiment: MTT cytotoxicity assay, K562 cells; assay type: cell-based, human; conditions: for IC50: Homo sapiens, K562, 48 h of incubation, mean ± SD, three independent experiments
Procedure: (§1) HeLa human cervical carcinoma cells were incubated in Dulbecco’s modified Eagle’s medium (DMEM) (Wako Pure Chemical Industries, Osaka, Japan) supplemented with 10% fetal bovine serum (FBS) (Equitech-Bio, Kerrville, TX, USA). […] Growing cells were plated at 2 × 10^4 cells/mL into 24-well microtiter tissue culture plates (Iwaki brand Asahi Glass Co., Chiba, Japan) and incubated for 48 h before the addition of the drugs (the optimal cell number for cytotoxicity assays was determined in preliminary experiments). […] The concentration of DMSO in the final culture medium was 1%.
(§2) The level of cellular reduction of 3-(4,5-dimethylthiazol-2-yl)-2,5-diphenyltetrazolium bromide (MTT) (Dojindo Molecular Technologies, Kumamoto, Japan) was quantified as previously described in the literature with small modifications [46]. The tested compounds were incubated with cells in various concentrations for 48 h. […] The solution was removed, and the formazan crystals were solubilized by an addition of 100 μL DMSO. The absorbance of the converted dye in the living cells was measured at a wavelength of 550 nm using a microplate spectrophotometer Infinitive M1000 (Tecan, Groding, Austria). Cell viability was calculated as a percentage of the viable control cells.

[2] = tested on: HeLa human cervical carcinoma cell line; experiment: MTT cytotoxicity assay, HeLa cells; assay type: cell-based; conditions: for IC50: Homo sapiens, HeLa, 48 h of incubation, mean ± SD, three independent experiments; for activity against the HeLa cell line (in words): 48 h
Procedure: as §1, §2

MT-2 cell line = experiment: MTT cytotoxicity assay, MT-2 cells; assay type: cell-based; conditions: Homo sapiens, MT2, 48 h of incubation, mean ± SD, three independent experiments
Procedure: as §1, §2

Jurkat cell line = experiment: MTT cytotoxicity assay, Jurkat cells; assay type: cell-based; conditions: Homo sapiens, 48 h of incubation, mean ± SD, three independent experiments
Procedure: as §1, §2

LCK = biological target: T1, LCK (Homo sapiens, UniProt P06239); experiment: Kinase inhibition assay (TK-2 profiling, ADP-Glo), LCK; assay type: biochemical
T1 construct: purchased Promega Corporation
T1 sequence (P06239 whole entry): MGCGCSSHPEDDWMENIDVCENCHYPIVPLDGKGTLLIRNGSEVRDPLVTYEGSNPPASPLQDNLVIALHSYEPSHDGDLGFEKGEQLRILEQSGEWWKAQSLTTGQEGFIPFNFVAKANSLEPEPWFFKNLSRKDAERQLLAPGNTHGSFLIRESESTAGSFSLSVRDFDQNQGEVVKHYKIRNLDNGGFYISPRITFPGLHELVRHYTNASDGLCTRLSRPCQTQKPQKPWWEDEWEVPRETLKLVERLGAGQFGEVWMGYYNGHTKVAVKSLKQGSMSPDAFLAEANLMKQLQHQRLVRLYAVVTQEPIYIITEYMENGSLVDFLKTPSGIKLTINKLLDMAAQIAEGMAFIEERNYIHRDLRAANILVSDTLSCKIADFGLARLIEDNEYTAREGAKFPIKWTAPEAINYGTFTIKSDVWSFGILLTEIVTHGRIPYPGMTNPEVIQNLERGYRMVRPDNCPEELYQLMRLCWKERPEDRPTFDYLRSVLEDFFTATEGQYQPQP
Procedure: (§3) Kinase selectivity profiling system (TK-2) assays were performed according to the manufacturer’s instructions (Promega Corporation, Madison, WI, USA). Multipoint dose-response experiments were performed using eight kinases, namely: ABL1, BRK, BTK, CSK, FYN A, LCK, LYN B, and SRC. […] After 1 h of incubation at room temperature, kinase activity was quantified using the ADP-Glo Kinase Assay (Promega Corporation). Kinase inhibition was quantified using an Infinitive M1000 luminescence microplate spectrophotometer (Tecan, Groding, Austria).

BRK = BRK (Homo sapiens, UniProt Q13882); experiment: Kinase inhibition assay (TK-2 profiling, ADP-Glo), BRK
BRK, sequence (Q13882 whole entry): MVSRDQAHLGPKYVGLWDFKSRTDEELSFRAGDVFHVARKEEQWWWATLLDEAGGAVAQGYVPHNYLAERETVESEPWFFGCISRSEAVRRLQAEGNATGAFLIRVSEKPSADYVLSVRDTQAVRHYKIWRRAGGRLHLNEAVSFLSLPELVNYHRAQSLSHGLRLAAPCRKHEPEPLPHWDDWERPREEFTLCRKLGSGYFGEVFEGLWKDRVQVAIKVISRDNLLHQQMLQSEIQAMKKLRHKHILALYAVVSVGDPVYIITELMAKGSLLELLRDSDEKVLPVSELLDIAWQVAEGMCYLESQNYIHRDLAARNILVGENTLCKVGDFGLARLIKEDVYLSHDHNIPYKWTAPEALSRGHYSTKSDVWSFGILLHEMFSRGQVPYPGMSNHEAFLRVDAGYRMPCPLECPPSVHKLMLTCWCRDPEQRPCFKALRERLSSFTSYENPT
Procedure: as §3

SRC = biological target: T2, SRC (Homo sapiens, UniProt P12931); experiment: Kinase inhibition assay (TK-2 profiling, ADP-Glo), SRC; assay type: biochemical
T2 construct: purchased Promega Corporation
T2 sequence (P12931 whole entry): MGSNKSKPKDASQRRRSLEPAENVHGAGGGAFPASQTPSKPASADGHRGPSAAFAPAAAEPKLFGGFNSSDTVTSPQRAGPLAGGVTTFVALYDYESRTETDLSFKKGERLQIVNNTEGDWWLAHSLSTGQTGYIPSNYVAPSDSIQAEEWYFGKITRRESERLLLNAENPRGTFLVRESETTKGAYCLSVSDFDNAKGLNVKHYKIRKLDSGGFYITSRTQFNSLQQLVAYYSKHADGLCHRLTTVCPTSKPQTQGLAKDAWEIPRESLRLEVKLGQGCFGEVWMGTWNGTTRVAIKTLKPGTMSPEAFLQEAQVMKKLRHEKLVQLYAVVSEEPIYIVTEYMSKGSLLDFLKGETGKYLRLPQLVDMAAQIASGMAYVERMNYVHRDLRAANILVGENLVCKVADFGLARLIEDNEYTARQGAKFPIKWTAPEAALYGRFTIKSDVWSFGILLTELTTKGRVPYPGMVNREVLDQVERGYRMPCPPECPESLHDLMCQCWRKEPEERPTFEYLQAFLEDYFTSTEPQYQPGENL
Procedure: as §3

CSK = CSK (Homo sapiens, UniProt P41240); experiment: Kinase inhibition assay (TK-2 profiling, ADP-Glo), CSK
CSK, sequence (P41240 whole entry): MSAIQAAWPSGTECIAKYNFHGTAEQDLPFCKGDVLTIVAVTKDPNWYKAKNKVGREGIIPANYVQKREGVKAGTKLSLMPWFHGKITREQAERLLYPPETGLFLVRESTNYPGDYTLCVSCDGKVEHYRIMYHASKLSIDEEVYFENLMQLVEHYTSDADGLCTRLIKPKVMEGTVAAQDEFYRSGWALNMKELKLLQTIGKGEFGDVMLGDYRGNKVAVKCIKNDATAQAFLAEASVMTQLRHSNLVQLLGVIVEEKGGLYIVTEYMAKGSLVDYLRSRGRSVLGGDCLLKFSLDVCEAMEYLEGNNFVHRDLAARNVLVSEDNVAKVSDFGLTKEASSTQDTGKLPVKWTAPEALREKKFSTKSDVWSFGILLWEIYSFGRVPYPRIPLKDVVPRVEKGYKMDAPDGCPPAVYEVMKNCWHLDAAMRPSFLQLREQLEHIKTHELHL
Procedure: as §3

LYN B = LYN B (Homo sapiens, UniProt P07948); experiment: Kinase inhibition assay (TK-2 profiling, ADP-Glo), LYN B
LYN B, sequence (P07948 1-491 isoform P07948-2): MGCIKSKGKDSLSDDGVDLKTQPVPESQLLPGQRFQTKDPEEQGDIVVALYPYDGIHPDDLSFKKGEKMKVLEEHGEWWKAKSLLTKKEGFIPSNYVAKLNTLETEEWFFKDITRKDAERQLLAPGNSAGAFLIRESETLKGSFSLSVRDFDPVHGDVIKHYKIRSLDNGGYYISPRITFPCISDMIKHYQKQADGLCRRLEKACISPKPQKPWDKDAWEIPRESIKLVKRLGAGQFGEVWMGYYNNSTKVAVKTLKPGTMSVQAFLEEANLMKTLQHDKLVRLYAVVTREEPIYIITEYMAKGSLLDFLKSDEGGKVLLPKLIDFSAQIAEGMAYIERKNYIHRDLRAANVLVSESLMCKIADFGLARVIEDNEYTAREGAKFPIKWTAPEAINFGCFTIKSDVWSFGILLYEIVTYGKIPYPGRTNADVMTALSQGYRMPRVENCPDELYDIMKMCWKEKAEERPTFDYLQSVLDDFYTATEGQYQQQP
Procedure: as §3

[3] = tested on: peripheral blood mononuclear cells (PBMC); experiment: MTT cytotoxicity assay, PBMC; assay type: cell-based
Procedure: as §1, §2

FYN A = FYN A (Homo sapiens, UniProt P06241); experiment: Kinase inhibition assay (TK-2 profiling, ADP-Glo), FYN A
FYN A, sequence (P06241 whole entry): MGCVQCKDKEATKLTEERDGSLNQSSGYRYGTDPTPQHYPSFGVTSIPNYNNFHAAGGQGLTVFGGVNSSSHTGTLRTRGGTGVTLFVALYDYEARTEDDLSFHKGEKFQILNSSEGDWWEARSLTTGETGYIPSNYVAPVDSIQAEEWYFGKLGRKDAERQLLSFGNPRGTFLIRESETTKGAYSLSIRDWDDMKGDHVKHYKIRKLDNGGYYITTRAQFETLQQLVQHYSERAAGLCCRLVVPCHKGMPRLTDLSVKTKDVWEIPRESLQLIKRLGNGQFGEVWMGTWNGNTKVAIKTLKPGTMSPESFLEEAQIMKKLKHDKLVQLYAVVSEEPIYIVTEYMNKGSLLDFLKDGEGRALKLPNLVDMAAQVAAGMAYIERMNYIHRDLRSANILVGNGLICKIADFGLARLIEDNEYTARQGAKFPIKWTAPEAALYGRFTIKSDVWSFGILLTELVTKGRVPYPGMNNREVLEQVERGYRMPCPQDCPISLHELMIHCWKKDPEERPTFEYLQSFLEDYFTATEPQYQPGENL
Procedure: as §3

BTK = BTK (Homo sapiens, UniProt Q06187); experiment: Kinase inhibition assay (TK-2 profiling, ADP-Glo), BTK
BTK, sequence (Q06187 whole entry): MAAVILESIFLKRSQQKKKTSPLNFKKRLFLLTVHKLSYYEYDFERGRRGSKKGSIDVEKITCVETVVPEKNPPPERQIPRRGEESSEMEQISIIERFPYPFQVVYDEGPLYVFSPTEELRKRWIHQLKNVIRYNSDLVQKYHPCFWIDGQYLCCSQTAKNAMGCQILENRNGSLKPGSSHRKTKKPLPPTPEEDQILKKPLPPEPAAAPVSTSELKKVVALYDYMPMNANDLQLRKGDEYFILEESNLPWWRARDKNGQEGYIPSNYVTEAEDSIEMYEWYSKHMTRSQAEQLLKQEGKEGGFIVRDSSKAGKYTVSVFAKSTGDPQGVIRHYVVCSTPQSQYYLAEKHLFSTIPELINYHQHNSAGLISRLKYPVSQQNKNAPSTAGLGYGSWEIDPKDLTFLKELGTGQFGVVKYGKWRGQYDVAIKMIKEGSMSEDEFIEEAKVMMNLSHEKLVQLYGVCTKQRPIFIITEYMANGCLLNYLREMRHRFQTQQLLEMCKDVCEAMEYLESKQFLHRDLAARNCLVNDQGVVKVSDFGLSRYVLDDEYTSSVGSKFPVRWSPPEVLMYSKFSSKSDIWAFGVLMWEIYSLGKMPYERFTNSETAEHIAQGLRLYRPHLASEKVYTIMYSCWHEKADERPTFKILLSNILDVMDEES
Procedure: as §3

ABL1 = biological target: T3, ABL1 (Homo sapiens, UniProt P00519); experiment: Kinase inhibition assay (TK-2 profiling, ADP-Glo), ABL1; assay type: biochemical; conditions: 1 h at room temperature
T3 construct: purchased Promega Corporation
T3 sequence (P00519 whole entry): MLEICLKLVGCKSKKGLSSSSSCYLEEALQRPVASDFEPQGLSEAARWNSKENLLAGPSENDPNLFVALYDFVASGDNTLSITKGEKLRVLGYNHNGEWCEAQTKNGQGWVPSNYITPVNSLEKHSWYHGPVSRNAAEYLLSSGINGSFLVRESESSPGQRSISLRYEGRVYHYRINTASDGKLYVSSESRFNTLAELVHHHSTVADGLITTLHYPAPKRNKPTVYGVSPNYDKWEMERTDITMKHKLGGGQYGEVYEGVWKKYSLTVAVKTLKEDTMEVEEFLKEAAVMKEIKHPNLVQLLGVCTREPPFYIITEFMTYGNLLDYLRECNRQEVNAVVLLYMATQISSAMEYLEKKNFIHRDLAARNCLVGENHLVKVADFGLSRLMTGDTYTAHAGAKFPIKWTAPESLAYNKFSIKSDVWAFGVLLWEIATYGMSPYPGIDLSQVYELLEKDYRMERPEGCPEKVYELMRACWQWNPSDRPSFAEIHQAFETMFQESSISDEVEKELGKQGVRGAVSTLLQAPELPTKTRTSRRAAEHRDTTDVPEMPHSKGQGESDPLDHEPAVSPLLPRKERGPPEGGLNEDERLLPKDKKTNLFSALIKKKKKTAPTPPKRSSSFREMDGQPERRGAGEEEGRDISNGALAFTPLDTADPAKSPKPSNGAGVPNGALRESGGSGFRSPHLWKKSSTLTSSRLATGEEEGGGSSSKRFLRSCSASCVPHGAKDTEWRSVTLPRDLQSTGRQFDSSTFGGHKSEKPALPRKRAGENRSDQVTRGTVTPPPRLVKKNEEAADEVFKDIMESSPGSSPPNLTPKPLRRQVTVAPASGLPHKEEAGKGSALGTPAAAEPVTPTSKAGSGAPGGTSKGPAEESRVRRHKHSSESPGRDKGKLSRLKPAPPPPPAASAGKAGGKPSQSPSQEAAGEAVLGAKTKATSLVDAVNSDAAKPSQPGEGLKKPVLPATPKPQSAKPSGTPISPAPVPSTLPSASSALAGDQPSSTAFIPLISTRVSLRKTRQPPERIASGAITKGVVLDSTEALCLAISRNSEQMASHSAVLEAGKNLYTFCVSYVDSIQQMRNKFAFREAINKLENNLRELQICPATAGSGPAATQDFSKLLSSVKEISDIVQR
Procedure: as §3

HeLa cells = experiment: Apoptotic/necrotic/healthy cells detection assay (annexin V/ethidium homodimer III staining); assay type: cell-based, human; conditions: IC50 concentration; for apoptotic activity: 3 h, approximately 100 stained cells counted; for apoptotic and necrotic effects: 24 h and 48 h, data not shown
Procedure: Then, detection of apoptotic/necrotic/healthy cells was performed according to the manufacturer’s instructions (PromoKine, Heidelberg, Germany). After the cells were washed twice with 1× binding buffer, a staining solution containing 50 μL of 1 × binding buffer, 2 μL of FITC-Annexin V solution, 2 μL of ethidium homodimer III solution, and 2 μL of Hoechst 33,342 solution was added and the cells were incubated for 15 min at room temperature (RT), protected from light. The cells were washed with 1 × binding buffer, analyzed by the all-in-one fluorescence microscope Biorevo Fluorescence BZ-9000 (Keyence, Osaka, Japan), and counted as described previously in [47].

[4] = ADP-Glo, 1 h at room temperature

SMILES | IC50 [1] [µM] | IC50 [2] [µM] | IC50 (MT-2 cell line) [µM] | IC50 (Jurkat cell line) [µM] | melting point [°C] | other results
O=C(CSc1nnc(Nc2ccc(C(F)(F)F)cc2)s1)Nc1nc2ccc(F)cc2s1 [Compound 5, N-(6-Fluorobenzothiazol-2-yl)-2-((5-((4-(trifluoromethyl)phenyl)amino)-1,3,4-thiadiazol-2-yl)thio)acetamide] | > 300 | 17.3 ± 8 | 78.5 ± 12 | 97.9 ± 10 | 309.9 to 310.8 | 
O=C(CSc1nnc(Nc2ccc(C(F)(F)F)cc2)s1)Nc1ncc([N+](=O)[O-])s1 [Compound 2, N-(5-Nitrothiazol-2-yl)-2-((5-((4-(trifluoromethyl)phenyl)amino)-1,3,4-thiadiazol-2-yl)thio)acetamide] | 33 ± 4 | 12.4 ± 2 | 167 ± 8 | 17.9 ± 4 | 275 to 276.5 | IC50 (LCK; [4]): 40.1 µM; inhibition of LCK (in words) (LCK; IC50 in the micromolar range): significantly inhibited; IC50 (BRK): > 100 µM; inhibition of BRK (in words) (BRK): inactive; inhibition of SRC (in words) (SRC): inactive; IC50 (SRC; [4]): > 100 µM; IC50 (CSK): 18.4 µM; inhibition of CSK (in words) (CSK; IC50 in the micromolar range): significantly inhibited; IC50 (LYN B): > 100 µM; inhibition of LYN B (in words) (LYN B): inactive; IC50 ([3]; PBMC, MTT, 48 h of incubation, mean ± SD, three independent experiments): 141 ± 16 µM; times lower cytotoxicity on PBMC than imatinib ([3]; ratio of PBMC IC50 values, 48 h): ~ 5 times; IC50 (FYN A): 70.8 µM; inhibition of FYN A (in words) (FYN A; IC50 in the micromolar range): significantly inhibited; IC50 (BTK): 30.2 µM; inhibition of BTK (in words) (BTK; IC50 in the micromolar range): significantly inhibited; IC50 (ABL1): 7.4 µM; apoptotic activity (HeLa cells): 96%; apoptotic and necrotic effects (HeLa cells): induced late apoptosis or necrosis
O=C(CSc1nnc(Nc2ccc(C(F)(F)F)cc2)s1)Nc1nc2ccc([N+](=O)[O-])cc2s1 [Compound 10, N-(6-Nitrobenzothiazol-2-yl)-2-((5-((4-(trifluoromethyl)phenyl)amino)-1,3,4-thiadiazol-2-yl)thio)acetamide] | > 300 | 75.3 ± 9 | > 300 | > 300 | 311.8 to 312.5 | activity against the HeLa cell line (in words) [2]: no significant activity
CCOC(=O)Cc1csc(NC(=O)CSc2nnc(Nc3ccc(C(F)(F)F)cc3)s2)n1 [Compound 3, Ethyl 2-(2-(2-((5-((4-(trifluoromethyl)phenyl)amino)-1,3,4-thiadiazol-2-yl)thio)acetamido)thiazol-4-yl)acetate] | > 300 | 14.1 ± 5 | > 300 | 129 ± 6 |  | 
COc1ccc2nc(NC(=O)CSc3nnc(Nc4ccc(C(F)(F)F)cc4)s3)sc2c1 [Compound 8, N-(6-Methoxybenzothiazol-2-yl)-2-((5-((4-(trifluoromethyl)phenyl)amino)-1,3,4-thiadiazol-2-yl)thio)acetamide] | > 300 | 30.9 ± 4 | > 300 | > 300 |  | 
O=C(CSc1nnc(Nc2ccc(C(F)(F)F)cc2)s1)Nc1nc2ccccc2s1 [Compound 4, N-(Benzothiazol-2-yl)-2-((5-((4-(trifluoromethyl)phenyl)amino)-1,3,4-thiadiazol-2-yl)thio)acetamide] | > 300 | 32.9 ± 2 | 267 ± 14 | > 300 |  | 
O=C(CSc1nnc(Nc2ccc(C(F)(F)F)cc2)s1)Nc1nc2ccc(Cl)cc2s1 [Compound 6, N-(6-Chlorobenzothiazol-2-yl)-2-((5-((4-(trifluoromethyl)phenyl)amino)-1,3,4-thiadiazol-2-yl)thio)acetamide] | > 300 | 28.7 ± 10 | 38.3 ± 2 | 54.4 ± 8 |  | 
O=C(CSc1nnc(Nc2ccc(C(F)(F)F)cc2)s1)Nc1nccs1 [Compound 1, N-(Thiazol-2-yl)-2-((5-((4-(trifluoromethyl)phenyl)amino)-1,3,4-thiadiazol-2-yl)thio)acetamide] | > 300 | 135 ± 12 | > 300 | > 300 | 271.4 to 272.5 | activity against the K562 cell line (in words) ([1]; 48 h): inactive; activity against the HeLa cell line (in words) [2]: no significant activity
CCOc1ccc2nc(NC(=O)CSc3nnc(Nc4ccc(C(F)(F)F)cc4)s3)sc2c1 [Compound 9, N-(6-Ethoxybenzothiazol-2-yl)-2-((5-((4-(trifluoromethyl)phenyl)amino)-1,3,4-thiadiazol-2-yl)thio)acetamide] | > 300 | 69.4 ± 7 | > 300 | 96.1 ± 7 |  | activity against the HeLa cell line (in words) [2]: no significant activity
Cc1ccc(NC(=O)c2ccc(CN3CCN(C)CC3)cc2)cc1Nc1nccc(-c2cccnc2)n1 [Imatinib, imatinib, reference compound] |  |  |  |  |  | apoptotic activity (HeLa cells): 78%; apoptotic and necrotic effects (HeLa cells): induced late apoptosis or necrosis
Cc1ccc2nc(NC(=O)CSc3nnc(Nc4ccc(C(F)(F)F)cc4)s3)sc2c1 [Compound 7, N-(6-Methylbenzothiazol-2-yl)-2-((5-((4-(trifluoromethyl)phenyl)amino)-1,3,4-thiadiazol-2-yl)thio)acetamide] | > 300 | 30.2 ± 4 | 198 ± 11 | > 300 |  | 
